In US10364222B2, “Cyclic amine derivative and medical use thereof” (Toray Industries, Inc., priority 2016, dated 2019):

Tests used:
[1] = target: T1, ligand-binding domain of RORγ (RORγ-LBD) (Homo sapiens, UniProt P51449); assay: Inhibitory effect on RORγ-coactivator binding (LanthaScreen TR-FRET RORγ Coactivator Assay); details: at 33 μmol/L of the test compound; read-out: RORγ-coactivator binding inhibition rate (%)
T1 construct: purchased Invitrogen
T1 sequence (P51449 269-508 limits assumed): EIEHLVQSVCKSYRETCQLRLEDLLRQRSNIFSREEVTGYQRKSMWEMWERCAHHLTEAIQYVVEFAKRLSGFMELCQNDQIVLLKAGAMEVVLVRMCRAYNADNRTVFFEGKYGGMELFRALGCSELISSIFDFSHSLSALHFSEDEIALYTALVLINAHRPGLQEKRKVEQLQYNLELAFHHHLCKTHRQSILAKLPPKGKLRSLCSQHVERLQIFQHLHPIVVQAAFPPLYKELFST
Procedure: The inhibitory effect of the cyclic amine derivative (I) or a pharmacologically acceptable salt thereof on the binding between a ligand-binding domain of RORγ (hereinafter referred to as RORγ-LBD) and a coactivator was evaluated using Invitrogen's LanthaScreen™TR-FRET Retinoid-Related Orphan Receptor (ROR) gamma Coactivator Assay kit utilizing time-resolved fluorescence energy transfer (TR-FRET).
The test compound was dissolved in DMSO and diluted with TR-FRET Coregulator Buffer D (Invitrogen) containing 5 mmol/L of DTT to have a final DMSO concentration of 1% before use. To each well of a 384-well black plate (Corning Inc.), 4 nmol/L of GST-fused RORγ-LBD (Invitrogen) diluted with the buffer mentioned above and the test compound were added. A well without addition of the test compound and without addition of GST-fused RORγ-LBD (background) and a well without addition of the test compound and with addition of GST-fused RORγ-LBD (control) were prepared. Next, 150 nmol/L of fluorescein-labeled TRAP220/DRIP-2 (Invitrogen) diluted with the buffer mentioned above and 32 nmol/L of terbium-labeled anti-GST antibody (Invitrogen) were added to each well. After incubating the plate at room temperature for 16 to 24 hours, the fluorescence at 495 nm and 520 nm when excited at 320 nm was measured for each well and the ratio (fluorescence value at 520 nm/fluorescence value at 495 nm) was calculated.
The fold change with addition of the test compound (ratio with addition of the test compound/ratio of the background), the fold change of the control (ratio of the control/ratio of the background), and the fold change of the background (ratio of the background/ratio of the background) were calculated, and then the inhibition rate of binding between RORγ-LBD and a coactivator (hereinafter referred to as RORγ-coactivator binding inhibition rate) (%) was calculated from Formula 1: RORγ-coactivator binding inhibition rate(%)=(1−((Fold change with addition of the test compound)−(Fold change of the background))/((Fold change of the control)−(Fold change of the background)))×100 Formula 1

[2] = system: IL-17 production in mouse splenocytes; assay: Suppressive effect on IL-17 production by IL-23 stimulation in mouse splenocytes; type: cell-based; details: Splenocyte, 72 h, at 5 μmol/L of the test compound, 10 ng/mL human IL-23, 3 days, read-out: IL-17 production inhibition rate (%)
Procedure: Using mouse splenocytes, the suppressive effect of the cyclic amine derivative (I) or a pharmacologically acceptable salt thereof on IL-17 production by IL-23 stimulation was evaluated by a partially modified method mentioned in The Journal of Biological Chemistry, 2003, Vol. 278, No. 3, p. 1910-1914.
A single cell suspension was prepared from the spleen of C57BL/6J mice (male, 7 to 23 weeks old) (Charles River Laboratories Japan, Inc.) and splenocytes were prepared using Histopaque-1083 (Sigma-Aldrich Japan). The culture medium was used by adding 10% FBS (Gibco), 50 U/mL of penicillin 50 μg/mL of streptomycin (Gibco), 50 μmol/L of 2-mercaptoethanol (Gibco), and 100 U/mL of human IL-2 (Cell Science & Technology Institute, Inc.) to RPMI1640 medium (Gibco). The test compound was dissolved in DMSO and then diluted with the culture medium to have a final concentration of DMSO of 0.1% before use. Splenocytes (3×10^5 cells/well) prepared in the culture medium were seeded in wells of a 96-well flat-bottom plate (Corning Incorporated), the test compound and 10 ng/mL of human IL-23 (R & D systems, Inc.) were added thereto, and the cells were cultured at 37° C. under 5% CO2 for 3 days. A well without addition of human IL-23 and without addition of the test compound and a well with addition of human IL-23 and without addition of the test compound were prepared. After completion of the culture, the culture supernatant was collected and the IL-17 production amount in the supernatant was determined by ELISA method (R & D systems, Inc.).
The IL-17 production inhibition rate (%) was calculated from Formula 2. IL-17 production inhibition rate(%)=(1−((IL-17 production amount with addition of IL-23 and with addition of the test compound)−(IL-17 production amount without addition of IL-23 and without addition of the test compound))/((IL-17 production amount with addition of IL-23 and without addition of the test compound)−(IL-17 production amount without addition of IL-23 and without addition of the test compound)))×100 Formula 2

Row | inhibition at 33 µM [1] [%] | SMILES | inhibition at 5 µM [2] [%]
1 | 92.4 | NC(=O)N1CCCC[C@@H]1C(=O)Nc1ccc(-c2ccccc2OC(F)(F)F)c(Cl)c1 [Example 22, (R)-N^2-(2-chloro-2′-(trifluoromethoxy)-[1,1′-biphenyl]-4-yl)piperidine-1,2-dicarboxamide] | 98.1
2 | 101 | CS(=O)(=O)N1CCC(F)(F)C[C@@H]1C(=O)Nc1ccc(-c2ccccc2OC(F)(F)F)c(Cl)c1 [Example 28, (R)-N-(2-chloro-2′-(trifluoromethoxy)-[1,1′-biphenyl]-4-yl)-4,4-difluoro-1-(methylsulfonyl)piperidine-2-carboxamide] | 98.6
3 | 97.2 | CN(CCC(=O)N1CCCCC1C(=O)Nc1ccc(-c2ccccc2OC(F)(F)F)c(Cl)c1)S(C)(=O)=O (stereo not shown) [Example 36, N-(2-chloro-2′-(trifluoromethoxy)-[1,1′-biphenyl]-4-yl)-1-(3-(N-methylmethylsulfonamide)propanoyl)piperidine-2-carboxamide] | 96.9
4 | 98.4 | O=C(Nc1ccc(-c2ccccc2OC(F)(F)F)c(Cl)c1)[C@H]1CCCCN1C(=O)C(F)(F)F [Example 23, (R)-N-(2-chloro-2′-(trifluoromethoxy)-[1,1′-biphenyl]-4-yl)-1-(2,2,2-trifluoroacetyl)piperidine-2-carboxamide] | 99.4
5 | 95.5 | O=C(Nc1ccc(-c2ccccc2OC(F)(F)F)c(Cl)c1)[C@H]1CCCCN1C(=O)CCn1ccnc1 [Example 59, (R)-1-(3-(1H-imidazol-1-yl)propanoyl)-N-(2-chloro-2′-(trifluoromethoxy)-[1,1′-biphenyl]-4-yl)piperidine-2-carboxamide] | 99.8
6 | 104 | CCN(CC(=O)N1CCCCC1C(=O)Nc1ccc(-c2ccccc2OC(F)(F)F)c(Cl)c1)S(C)(=O)=O (stereo not shown) [Example 37, N-(2-chloro-2′-(trifluoromethoxy)-[1,1′-biphenyl]-4-yl)-1-(2-(N-ethylmethylsulfonamide)acetyl)piperidine-2-carboxamide] | 99.1
7 | 102 | O=C(Nc1ccc(-c2ccccc2OC(F)(F)F)c(Cl)c1)C1CCCCN1C(=O)c1cn[nH]c1 (stereo not shown) [Example 48, N-(2-chloro-2′-(trifluoromethoxy)-[1,1′-biphenyl]-4-yl)-1-(1H-pyrazole-4-carbonyl)piperidine-2-carboxamide] | 99.4
8 | 98.8 | CSCCC(=O)N1CCCCC1C(=O)Nc1ccc(-c2ccccc2OC(F)(F)F)c(Cl)c1 (stereo not shown) [Example 39, N-(2-chloro-2′-(trifluoromethoxy)-[1,1′-biphenyl]-4-yl)-1-(3-(methylthio)propanoyl)piperidine-2-carboxamide] | 99.2
9 | 103 | O=C(Nc1ccc(-c2ccccc2OC(F)(F)F)c(Cl)c1)[C@H]1CCCCN1C(=O)Cn1nccn1 [Example 66, (R)-1-(2-(2H-1,2,3-triazol-2-yl)acetyl)-N-(2-chloro-2′-(trifluoromethoxy)-[1,1′-biphenyl]-4-yl)piperidine-2-carboxamide] | 99.5
10 | 100 | CN(CC(=O)N1CCCCC1C(=O)Nc1ccc(-c2ccccc2OC(F)(F)F)c(F)c1)S(C)(=O)=O (stereo not shown) [Example 51, N-(2-fluoro-2′-(trifluoromethoxy)-[1,1′-biphenyl]-4-yl)-1-(2-(N-methylmethylsulfonamide)acetyl)piperidine-2-carboxamide] | 98.6
11 | 100 | CS(=O)(=O)NCC(=O)N1CCCCC1C(=O)Nc1ccc(-c2ccccc2OC(F)(F)F)c(Cl)c1 (stereo not shown) [Example 10, N-(2-chloro-2′-(trifluoromethoxy)-[1,1′-biphenyl]-4-yl)-1-(2-(methylsulfonamide)acetyl)piperidine-2-carboxamide] | 98.6
